Source: US11555175B2, “Cell culture methods and media comprising N-acetylcysteine” (Medimmune, LLC, priority 2014, dated 2023)

Legend:
Assay type in all cases: cell-based
[1] = tested on: NS0 Null Cell Line; test: Cell doubling time of NS0 Null Cell Line at vial thaw with NAC-supplemented medium; details: for cell doubling time at vial thaw: control medium 67.8 hours
From the text: (§1) To investigate the role of N-Acetylcysteine on thaw recovery, cell viability, cell growth and cell doubling time on subsequent passaging, the following methods were used. Three different NS0 cell lines cultured in one to three different Animal Protein Free (“APF”) media were investigated to study the effect of N-acetylcysteine (NAC) on cell growth at vial thaw and during routine cell expansion. One of the cell lines was a NS0 null host cell that had not been transformed to express a recombinant protein (NS0 Null Cell Line). The other two NS0 cell lines were engineered to express a therapeutic recombinant protein: NS0 Cell Line 1 (expressing an anti-IL-9 antibody) and NS0 Cell Line 2 (expressing BAK502G9, an anti-IL-13 antibody). NS0 Cell Line 1 was thawed and expanded in two different APF media (APF Medium 1 or APF Medium 2) supplemented with various concentrations of NAC ranging from 1.5 mM to 2.5 mM. NS0 Cell Line 2 was thawed and expanded in three different APF media (APF Medium 1, APF Medium 2 or a commercially available NS0 cell culture media (CD Hybridoma+cholesterol from Invitrogen/Gibco)) supplemented with NAC ranging from 0.5 mM to 2.5 mM, while the untransformed host cell line (NS0 Null Cell Line) was thawed in APF medium 2 supplemented with NAC ranging from 0.5 mM to 1.5 mM. NAC was obtained from Sigma and was either added to the medium directly or dissolved in water at 100 mM concentration before adding to the media at the appropriate concentration. All three media (APF Medium 1, APF Medium 2, and CD Hybridoma+cholesterol from Invitrogen/Gibco) supported growth of NS0 cells, as illustrated in FIGS. 1-12. APF Medium 1 and APF Medium 2 contain standard cell culture components including: amino acids, vitamins, lipids, sugar, small peptides, pH buffer, trace metals, inorganic salts, nucleotides, nucleotide precursors, surfactants, reducing agents, cholesterol, lipids and antioxidants.
(§2) Prior to vial thaw, media were temperature and pH equilibrated for a minimum of 1 hour in a 6% CO2 incubator at 37° C. with agitation at 120 rpm on a shaker. Vials were thawed using a 37° C. water bath and the entire contents were transferred equilibrated media. A cell count using Beckman Vi-Cell (an image-based cell viability analyzer) was obtained to measure the viable cell density and viability.
(§3) Viable cell densities during the first 3 to 4 days (i.e. exponential growth phase) at each passage were used to calculate population doubling times during both the first few days after the vial thaw while the cells were recovering from the thaw and during subsequent cell passages when the cells have fully recovered and reached a consistent doubling time from passage to passage.
NS0 cells (i.e. NS0 Null Cell Line) not transfected with a heterologous protein were in a frozen stock. Frozen NS0 Null Cell Line cells were thawed in animal-protein free (APF) medium (i.e. APF media 2) supplemented with various concentrations of N-acetylcysteine (NAC) and viable cell density during exponential growth phase was used to calculate average cell doubling time as described in Example 1.

[2] = tested on: NS0 Cell Line 1 (expressing an anti-IL-9 antibody); test: Cell doubling time of NS0 Cell Line 1 at vial thaw with NAC-supplemented medium; details: for average cell doubling time at vial thaw: control medium 57.6 hours; for cell doubling time at vial thaw: control medium 109.8 hours
From the text: as §1, §2, §3
NS0 cells (i.e. NS0 Cell Line 1) expressing an anti-IL-9 monoclonal antibody were in a frozen stock. Frozen NS0 Cell Line 1 cells were thawed in animal-protein free (APF) medium (i.e. APF media 1 or APF media 2) supplemented with various concentrations of N-acetylcysteine (NAC) and viable cell density during exponential growth phase was used to calculate average cell doubling time as described above.

[3] = tested on: NS0 Null Cell Line; test: Cell doubling time of NS0 Null Cell Line during cell expansion with NAC-supplemented medium; details: for Average Doubling Time: APF Medium 2, during expansion, 0.0 mM control 31.9
From the text: as §1, §3
NS0 cells (i.e. NS0 Null Cell Line) not transfected with a heterologous protein were cultured in animal-protein free (APF) medium (i.e. APF media 2). The cells used in the vial thaw studies described in Example 3 were split into the same media (APF media 2 supplemented with various concentrations of N-acetylcysteine) and allowed to recover in subsequent passages until a consistent doubling time from passage to passage was achieved. Viable cell density during exponential growth phase after recovery was used to calculate average cell doubling time as described in Example 1.

[4] = tested on: NS0 Cell Line 2 (expressing BAK502G9, an anti-IL-13 antibody); test: Cell doubling time of NS0 Cell Line 2 during cell expansion with NAC-supplemented medium
From the text: as §1, §3
NS0 cells (i.e. NS0 Cell Line 2) expressing a monoclonal antibody (i.e. BAK502G9, an anti-IL-13 antibody) were cultured in animal-protein free (APF) medium (i.e. APF media 1, APF media 2 or CD Hybridoma medium (Gibco) supplemented with cholesterol (1× Invitrogen Cholesterol Lipid Concentrate)). The cells used in the vial thaw studies described in Example 2 were split into the same media (APF media 1, APF media 2 or CD Hybridoma medium+cholesterol) supplemented with various concentrations of N-acetylcysteine and allowed to recover in subsequent passages until a consistent doubling time from passage to passage was achieved. Viable cell density during exponential growth phase after recovery was used to calculate average cell doubling time as described in Example 1.

[5] = tested on: NS0 Cell Line 2 (expressing BAK502G9, an anti-IL-13 antibody); test: Cell doubling time of NS0 Cell Line 2 at vial thaw with NAC-supplemented medium
From the text: as §1, §2, §3
NS0 cells (i.e. NS0 Cell Line 2) expressing a monoclonal antibody (i.e. BAK502G9, an anti-IL-13 antibody) were in a frozen stock. Frozen NS0 Cell Line 2 cells were thawed in animal-protein free (APF) medium (i.e. APF media 1, APF media 2 or CD Hybridoma medium (Gibco) supplemented with cholesterol (1× Invitrogen Cholesterol Lipid Concentrate)) supplemented with various concentrations of N-acetylcysteine (NAC) and viable cell density during exponential growth phase was used to calculate average cell doubling time as described in Example 1.

[6] = tested on: NS0 Cell Line 1 (expressing an anti-IL-9 antibody); test: Cell doubling time of NS0 Cell Line 1 during cell expansion with NAC-supplemented medium
From the text: as §1, §3
NS0 cells (i.e. NS0 Cell Line 1) expressing an anti-IL-9 monoclonal antibody were cultured in animal-protein free (APF) medium (i.e. APF media 1 or APF media 2). The cells used in the vial thaw studies described in Example 1 were split into the same media (APF media 1 or APF media 2 supplemented with various concentrations of N-acetylcysteine) and allowed to recover in subsequent passages until a consistent doubling time from passage to passage was achieved. Viable cell density during exponential growth phase after recovery was used to calculate average cell doubling time as described in Example 1.

[7] = vial thaw, 0.5 mM to 1.5 mM NAC, APF medium 2
[8] = vial thaw, about 1.5 mM to about 2.5 mM NAC, APF media 1 and 2, vs control medium
[9] = during expansion, about 0.5 mM to about 2.5 mM NAC, three media
[10] = vial thaw, about 0.5 mM to about 2.5 mM NAC, three media, vs control medium
[11] = during expansion, about 1.5 mM to about 2.5 mM NAC, APF media 1 and 2

In the case of `CC(=O)N[C@@H](CS)C(=O)O` [NAC, (2R) -2-acetamido-3-sulfanylpropanoic acid], the “cell doubling time at vial thaw” value ([1]; APF media 2, 0.5 mM NAC) is reported as 36.8 h, the “cell doubling time at vial thaw” value ([1]; APF media 2, 1.0 mM NAC) is reported as 38.4 h and the “cell doubling time at vial thaw” value ([1]; APF media 2, 1.5 mM NAC) is reported as 57.9 h. The cell growth [1, 7] was “increased”, the cell viability [1, 7] was “improved” and the “average cell doubling time at vial thaw” value ([2]; APF media 1, 1.5 mM NAC) was 55.6 h. For the same molecule, the “average cell doubling time at vial thaw” value ([2]; APF media 1, 2.0 mM NAC) was 48.4 h, the “average cell doubling time at vial thaw” value ([2]; APF media 1, 2.5 mM NAC) was 53.9 h and the “cell doubling time at vial thaw” value ([2]; APF media 2, 1.5 mM NAC) was 47.5 h. The “cell doubling time at vial thaw” value ([2]; APF media 2, 2.0 mM NAC) was 56.9 h, the “cell doubling time at vial thaw” value ([2]; APF media 2, 2.5 mM NAC) was 47.7 h and the cell growth [2, 8] was “increases”. For the same molecule, the cell viability [2, 8] was “increases”, the “Average Doubling Time” value ([3]; 0.5 mM NAC) was 26.4 h and the “Average Doubling Time” value ([3]; 1.0 mM NAC) was 26.4 h. The “Average Doubling Time” value ([3]; 1.5 mM NAC) was 26.2 h, the cell growth ([3]; during expansion, 0.5 mM to 1.5 mM NAC, APF medium 2) was “increased” and the cell viability ([3]; during expansion, about 0.5 mM to about 2.0 mM NAC, statement covers three NS0 cell lines in three media) was “increased”. The “Average Doubling Time” value ([4]; APF Medium 1, during expansion, 0.5 mM NAC, 0.0 mM control 41.7) was 35.4 h, the “Average Doubling Time” value ([4]; APF Medium 1, during expansion, 1.0 mM NAC, 0.0 mM control 41.7) was 31.2 h and the “Average Doubling Time” value ([4]; APF Medium 1, during expansion, 2.5 mM NAC, 0.0 mM control 41.7) was 31.2 h. For the same molecule, the “Average Doubling Time” value ([4]; APF Medium 2, during expansion, 0.5 mM NAC, 0.0 mM control 38.1) was 30.2 h, the “Average Doubling Time” value ([4]; APF Medium 2, during expansion, 1.0 mM NAC, 0.0 mM control 38.1) was 28.8 h and the “Average Doubling Time” value ([4]; APF Medium 2, during expansion, 2.0 mM NAC, 0.0 mM control 38.1) was 31.5 h. For the same molecule, the “Average Doubling Time” value ([4]; Invitrogen CD Hybridoma Medium supplemented with cholesterol, during expansion, 0.5 mM NAC, 0.0 mM control 40.7) was 39.7 h, the “Average Doubling Time” value ([4]; Invitrogen CD Hybridoma Medium supplemented with cholesterol, during expansion, 1.0 mM NAC, 0.0 mM control 40.7) was 37.5 h and the “Average Doubling Time” value ([4]; Invitrogen CD Hybridoma Medium supplemented with cholesterol, during expansion, 2.0 mM NAC, 0.0 mM control 40.7) was 35.7 h. For the same molecule, the cell growth [4, 9] was “increases”, the cell viability [4, 9] was “increases” and the “average cell doubling time at vial thaw” value ([5]; APF media 1, 0.5 mM NAC, control medium 44.6 hours) was 39.6 h. The “average cell doubling time at vial thaw” value ([5]; APF media 1, 1.0 mM NAC, control medium 44.6 hours) was 41.6 h, the “average cell doubling time at vial thaw” value ([5]; APF media 1, 2.5 mM NAC, control medium 44.6 hours) was 37.5 h and the “average cell doubling time at vial thaw” value ([5]; APF media 2, 0.5 mM NAC, control medium 77.0 hours) was 57.7 h. The “average cell doubling time at vial thaw” value ([5]; APF media 2, 1.0 mM NAC, control medium 77.0 hours) was 37.0 h, the “average cell doubling time at vial thaw” value ([5]; APF media 2, 2.0 mM NAC, control medium 77.0 hours) was 39.7 h and the “average cell doubling time at vial thaw” value ([5]; CD Hybridoma medium (Gibco) + 1x Cholesterol Lipid Concentrate, 0.5 mM NAC, control medium 35.5 hours) was 34.7 h. The “average cell doubling time at vial thaw” value ([5]; CD Hybridoma medium (Gibco) + 1x Cholesterol Lipid Concentrate, 1.0 mM NAC, control medium 35.5 hours) was 30.6 h, the “average cell doubling time at vial thaw” value ([5]; CD Hybridoma medium (Gibco) + 1x Cholesterol Lipid Concentrate, 2.0 mM NAC, control medium 35.5 hours) was 30.9 h and the cell growth [5, 10] was “increases”. For the same molecule, the cell viability [5, 10] was “increases”, the “Average Doubling Time” value ([6]; APF Medium 1, during expansion, 1.5 mM NAC, 0.0 mM control 47.0) was 42.3 h and the “Average Doubling Time” value ([6]; APF Medium 1, during expansion, 2.0 mM NAC, 0.0 mM control 47.0) was 46.1 h. The “Average Doubling Time” value ([6]; APF Medium 1, during expansion, 2.5 mM NAC, 0.0 mM control 47.0) was 63.6 h, the “Average Doubling Time” value ([6]; APF Medium 2, during expansion, 1.5 mM NAC, 0.0 mM control 44.3) was 34.8 h and the “Average Doubling Time” value ([6]; APF Medium 2, during expansion, 2.0 mM NAC, 0.0 mM control 44.3) was 34.6 h. For the same molecule, the “Average Doubling Time” value ([6]; APF Medium 2, during expansion, 2.5 mM NAC, 0.0 mM control 44.3) was 34.8 h, the cell growth [6, 11] was “increases” and the cell viability [6, 11] was “increases”.
